Data from paper PMC10041525, “New Dual Inhibitors of Bacterial Topoisomerases with Broad-Spectrum Antibacterial Activity and In Vivo Efficacy against Vancomycin-Intermediate Staphylococcus aureus” (Journal of Medicinal Chemistry, 2023).
In brackets after ≈: the same amount, converted by molar mass. Read-outs that look alike come from different tables or passages of the source.

Experiments:
Type in all cases: cell-based
[1] = system: 100 A. baumannii strains (50 MDR, 50 non-MDR); assay: MIC broth microdilution at IHMA Europe, panel of 100 strains; details: for MIC / MIC50 / MIC90: Acinetobacter baumannii; for MIC50: read-out: MIC 50; for MIC90: read-out: MIC 90
[2] = system: S. pneumoniae ATCC 49619; assay: IHMA QC MIC
Description: (§1) Supplement jm2c01905_si_004.xlsx, sheet "QC" | column: MIC [µg/mL]

[3] = system: H. influenzae ATCC 49247; assay: IHMA QC MIC
Description: as §1

[4] = system: H. influenzae ATCC 49766; assay: IHMA QC MIC
Description: as §1

[5] = system: E. faecalis ATCC 29212; assay: IHMA QC MIC
Description: as §1

[6] = system: N. gonorrhoeae ATCC 49226; assay: IHMA QC MIC; details: Neisseria gonorrhoeae, ATCC49226
Description: as §1

[7] = system: P. aeruginosa ATCC 27853; assay: IHMA QC MIC; details: for MIC: Pseudomonas aeruginosa
[8] = system: E. faecium (n = 13); assay: MIC broth microdilution at IHMA Europe; details: for MIC: Enterococcus faecium, read-out: MIC

Cc1[nH]c(C(=O)Nc2nc3c(N4[C@@H]5CC[C@H]4COC5)cc(C(=O)O)cc3s2)c(Cl)c1Cl [7h, 4-((1R,5S)-3-Oxa-8-azabicyclo[3.2.1]octan-8-yl)-2-(3,4-dichloro-5-methyl-1H-pyrrole-2-carboxamido)benzo[d]thiazole-6-carboxylic Acid]
MIC ([1]; A. baumannii IHMA 2193485, Venezuela 2020, Non-MDR, read-out: MIC): 1 µg/mL (≈ 2.08 µM) | MIC ([1]; A. baumannii IHMA 2193607, Venezuela 2020, MDR, read-out: MIC): 2 µg/mL (≈ 4.15 µM) | MIC ([1]; A. baumannii IHMA 2195460, Italy 2020, MDR, read-out: MIC): 2 µg/mL (≈ 4.15 µM) | MIC ([1]; A. baumannii IHMA 2196914, South Africa 2020, MDR, read-out: MIC): 2 µg/mL (≈ 4.15 µM) | MIC ([1]; A. baumannii IHMA 2196959, South Africa 2020, MDR, read-out: MIC): 2 µg/mL (≈ 4.15 µM) | MIC ([1]; A. baumannii IHMA 2203763, Spain 2020, MDR, read-out: MIC): 4 µg/mL (≈ 8.31 µM) | MIC ([1]; A. baumannii IHMA 2205144, Korea, South 2020, MDR, read-out: MIC): 2 µg/mL (≈ 4.15 µM) | MIC ([1]; A. baumannii IHMA 2206459, Taiwan 2020, MDR, read-out: MIC): 2 µg/mL (≈ 4.15 µM) | MIC ([1]; A. baumannii IHMA 2206507, Taiwan 2020, Non-MDR, read-out: MIC): 1 µg/mL (≈ 2.08 µM) | MIC ([1]; A. baumannii IHMA 2212575, Hungary 2020, Non-MDR, read-out: MIC): 4 µg/mL (≈ 8.31 µM) | MIC ([1]; A. baumannii IHMA 2215307, Hong Kong 2020, Non-MDR, read-out: MIC): 2 µg/mL (≈ 4.15 µM) | MIC ([1]; A. baumannii IHMA 2216586, Taiwan 2020, MDR, read-out: MIC): 2 µg/mL (≈ 4.15 µM) | MIC ([1]; A. baumannii IHMA 2223200, Colombia 2020, Non-MDR, read-out: MIC): 2 µg/mL (≈ 4.15 µM) | MIC ([1]; A. baumannii IHMA 2224017, Panama 2020, MDR, read-out: MIC): 4 µg/mL (≈ 8.31 µM) | MIC ([1]; A. baumannii IHMA 2224303, Panama 2020, Non-MDR, read-out: MIC): 4 µg/mL (≈ 8.31 µM) | MIC ([1]; A. baumannii IHMA 2231797, Greece 2020, MDR, read-out: MIC): 2 µg/mL (≈ 4.15 µM) | MIC ([1]; A. baumannii IHMA 2233099, Guatemala 2020, MDR, read-out: MIC): 4 µg/mL (≈ 8.31 µM) | MIC ([1]; A. baumannii IHMA 2233430, Kazakhstan 2020, MDR, read-out: MIC): 2 µg/mL (≈ 4.15 µM) | MIC ([1]; A. baumannii IHMA 2233548, Kazakhstan 2020, Non-MDR, read-out: MIC): 4 µg/mL (≈ 8.31 µM) | MIC ([1]; A. baumannii IHMA 2238964, Thailand 2020, MDR, read-out: MIC): 4 µg/mL (≈ 8.31 µM) | MIC ([1]; A. baumannii IHMA 2239052, Thailand 2020, Non-MDR, read-out: MIC): 4 µg/mL (≈ 8.31 µM) | MIC ([1]; A. baumannii IHMA 2261047, Belgium 2020, MDR, read-out: MIC): 4 µg/mL (≈ 8.31 µM) | MIC ([1]; A. baumannii IHMA 2261633, Canada 2020, Non-MDR, read-out: MIC): 4 µg/mL (≈ 8.31 µM) | MIC ([1]; A. baumannii IHMA 2274234, South Africa 2020, MDR, read-out: MIC): 2 µg/mL (≈ 4.15 µM) | MIC ([1]; A. baumannii IHMA 2274364, South Africa 2020, MDR, read-out: MIC): 2 µg/mL (≈ 4.15 µM) | MIC ([1]; A. baumannii IHMA 2275237, Chile 2020, Non-MDR, read-out: MIC): 2 µg/mL (≈ 4.15 µM) | MIC ([1]; A. baumannii IHMA 2275751, Jordan 2020, MDR, read-out: MIC): 2 µg/mL (≈ 4.15 µM) | MIC ([1]; A. baumannii IHMA 2316205, United States 2020, MDR, read-out: MIC): 2 µg/mL (≈ 4.15 µM) | MIC ([1]; MDR n = 50, read-out: MAX (maximum MIC; all strains inhibited)): 4 µg/mL (≈ 8.31 µM) | MIC50 ([1]; MDR n = 50): 2 µg/mL (≈ 4.15 µM) | MIC90 ([1]; MDR n = 50): 4 µg/mL (≈ 8.31 µM) | MIC ([1]; MDR n = 50, read-out: MIN (minimum MIC)): 1 µg/mL (≈ 2.08 µM) | MIC ([1]; all isolates n = 100, read-out: MAX (maximum MIC; all strains inhibited)): 8 µg/mL (≈ 16.6 µM) | MIC50 ([1]; all isolates n = 100): 2 µg/mL (≈ 4.15 µM) | MIC90 ([1]; all isolates n = 100): 4 µg/mL (≈ 8.31 µM) | MIC ([1]; all isolates n = 100, read-out: MIN (minimum MIC)): 1 µg/mL (≈ 2.08 µM) | MIC ([1]; non-MDR n = 50, read-out: MAX (maximum MIC)): 8 µg/mL (≈ 16.6 µM) | MIC50 ([1]; non-MDR n = 50): 2 µg/mL (≈ 4.15 µM) | MIC90 ([1]; non-MDR n = 50): 4 µg/mL (≈ 8.31 µM) | MIC ([1]; non-MDR n = 50, read-out: MIN (minimum MIC)): 1 µg/mL (≈ 2.08 µM) | MAX (maximum MIC; all strains inhibited) ([1]; MDR n = 50): 4 µg/mL | MAX (maximum MIC; all strains inhibited) ([1]; all isolates n = 100): 8 µg/mL | MIC ([2]; QC strain S. pneumoniae ATCC 49619, test date 2021-11-26): 0.25 µg/mL (≈ 0.519 µM) | MIC ([2]; Streptococcus pneumoniae, ATCC49619): 0.25 µg/mL (≈ 0.519 µM) | MIC ([3]; Haemophilus influenzae, ATCC49247, QC strain H. influenzae ATCC 49247, test date 2021-11-11): 0.25 µg/mL (≈ 0.519 µM) | MIC ([3]; Haemophilus influenzae, ATCC49247, QC strain H. influenzae ATCC 49247, test date 2021-11-26): 0.06 µg/mL (≈ 0.125 µM) | MIC ([3]; QC strain H. influenzae ATCC 49247, test date 2021-11-11): 0.5 µg/mL (≈ 1.04 µM) | MIC ([4]; Haemophilus influenzae, ATCC49766): 0.25 µg/mL (≈ 0.519 µM) | MIC ([4]; QC strain H. influenzae ATCC 49766, test date 2021-11-26): 0.25 µg/mL (≈ 0.519 µM) | MIC ([5]; Enterococcus faecalis, ATCC29212): ≤ 0.03 µg/mL | MIC ([5]; QC strain E. faecalis ATCC 29212, test date 2021-11-26): ≤0,03 µg/mL | MIC [6]: ≤ 0.03 µg/mL | MIC (QC, repeated tests) [7]: 4 µg/mL (≈ 8.31 µM) | MIC ([7]; ATCC27853, QC strain P. aeruginosa ATCC 27853, test date 2021-11-11): 16 µg/mL (≈ 33.2 µM) | MIC ([7]; ATCC27853, QC strain P. aeruginosa ATCC 27853, test date 2021-11-26): 8 µg/mL (≈ 16.6 µM) | MIC ([7]; ATCC27853, read-out: MIC (QC, repeated tests)): 8 µg/mL (≈ 16.6 µM) | MIC ([8]; E. faecium IHMA N° 1764866): ≤ 0.03 µg/mL | MIC ([8]; E. faecium IHMA N° 1765436): 0.06 µg/mL (≈ 0.125 µM) | MIC ([8]; E. faecium IHMA N° 1765746): ≤ 0.03 µg/mL | MIC ([8]; E. faecium IHMA N° 1893573): ≤ 0.03 µg/mL | MIC ([8]; E. faecium IHMA N° 1893846): 0.12 µg/mL (≈ 0.249 µM) | MIC ([8]; E. faecium IHMA N° 1893942): 0.06 µg/mL (≈ 0.125 µM) | MIC ([8]; E. faecium IHMA N° 1894055): 0.06 µg/mL (≈ 0.125 µM) | MIC ([8]; E. faecium IHMA N° 1897027): 0.06 µg/mL (≈ 0.125 µM) | MIC ([8]; E. faecium IHMA N° 1897101): ≤ 0.03 µg/mL | MIC ([8]; E. faecium IHMA N° 1904592): ≤ 0.03 µg/mL | MIC ([8]; E. faecium IHMA N° 2075051): 0.06 µg/mL (≈ 0.125 µM) | MIC ([8]; E. faecium IHMA N° 2077718): ≤ 0.03 µg/mL | MIC ([8]; E. faecium IHMA N° 2083787): ≤ 0.03 µg/mL | Cumulative % at MIC ([8]; MIC 0.06 µg/mL): 92.3% | Cumulative % at MIC ([8]; MIC […]): 100.0% | Cumulative % at MIC ([8]; MIC ≤0.03 µg/mL): 53.8% | MIC, all isolates ([8]; n = 13): ≤ 0.12 µg/mL
